In ChEMBL document CHEMBL5291721, “A preclinical secondary pharmacology resource illuminates target-adverse drug reaction associations of marketed drugs” (Nat Commun, 2023):

Biological target: T1, Alpha-2A adrenergic receptor (Homo sapiens, UniProt P08913)
T1 sequence (P08913 whole entry): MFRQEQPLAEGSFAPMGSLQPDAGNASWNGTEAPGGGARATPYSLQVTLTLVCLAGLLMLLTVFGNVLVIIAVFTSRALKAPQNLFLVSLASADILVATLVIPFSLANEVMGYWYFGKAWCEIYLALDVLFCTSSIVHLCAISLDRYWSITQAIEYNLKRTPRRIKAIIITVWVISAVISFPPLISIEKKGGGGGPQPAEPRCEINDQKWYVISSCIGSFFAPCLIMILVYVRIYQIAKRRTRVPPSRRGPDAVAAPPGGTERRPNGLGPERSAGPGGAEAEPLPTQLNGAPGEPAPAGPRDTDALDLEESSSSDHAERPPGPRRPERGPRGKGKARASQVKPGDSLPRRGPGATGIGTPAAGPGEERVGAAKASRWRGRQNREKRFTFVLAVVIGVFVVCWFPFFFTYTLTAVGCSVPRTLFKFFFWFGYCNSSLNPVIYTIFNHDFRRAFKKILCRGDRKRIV
Further: assay procedure not described here.

| SMILES | AC50 [µM] |
| --- | --- |
| CN(C)CCCN1c2ccccc2CCc2ccc(Cl)cc21 [CLOMIPRAMINE] | > 10 |

Biological target: Gamma-aminobutyric acid receptor subunit alpha-1 (Rattus norvegicus, UniProt P62813)
Sequence (P62813 whole entry): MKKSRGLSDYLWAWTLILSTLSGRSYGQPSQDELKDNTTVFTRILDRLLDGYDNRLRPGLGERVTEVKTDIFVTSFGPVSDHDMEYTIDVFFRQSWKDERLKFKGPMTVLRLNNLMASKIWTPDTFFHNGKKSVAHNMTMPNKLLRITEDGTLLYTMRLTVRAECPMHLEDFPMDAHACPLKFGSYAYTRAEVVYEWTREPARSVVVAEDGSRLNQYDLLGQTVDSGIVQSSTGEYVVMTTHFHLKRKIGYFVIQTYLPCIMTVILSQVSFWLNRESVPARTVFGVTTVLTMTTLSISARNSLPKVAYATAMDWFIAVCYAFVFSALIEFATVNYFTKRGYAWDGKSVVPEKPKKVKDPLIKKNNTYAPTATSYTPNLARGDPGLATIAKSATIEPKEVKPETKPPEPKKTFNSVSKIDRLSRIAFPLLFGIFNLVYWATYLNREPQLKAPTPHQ

| SMILES | AC50 [µM] |
| --- | --- |
| O=C1c2c(O)c(=O)ccn2N([C@@H]2c3ccccc3SCc3c2ccc(F)c3F)[C@@H]2COCCN12 [BALOXAVIR] | > 30 |
| C(=N\NC1=NCCN1)/c1c2ccccc2c(/C=N/NC2=NCCN2)c2ccccc12 [BISANTRENE] | > 30 |
| CC(=O)OCC(=O)[C@@]1(O)CC[C@H]2[C@@H]3CCC4=CC(=O)CC[C@]4(C)[C@H]3C(=O)C[C@@]21C [CORTISONE ACETATE] | > 30 |
| O=C1c2ccccc2C(=O)C1C(=O)C(c1ccccc1)c1ccccc1 [DIPHENADIONE] | > 30 |
| CCC(=O)O[C@H]1[C@H](O[C@@H]2[C@@H](C)[C@H](O[C@H]3C[C@@](C)(OC)[C@@H](O)[C@H](C)O3)[C@@H](C)C(=O)O[C@H](CC)[C@@](C)(O)[C@H](O)[C@@H](C)C(=O)[C@H](C)C[C@@]2(C)O)O[C@H](C)C[C@@H]1N(C)C [ERYTHROMYCIN PROPIONATE] | > 30 |
| C#C[C@]1(O)CC[C@H]2[C@@H]3CCC4=CC(=O)CC[C@@H]4[C@H]3CC[C@@]21CC [LEVONORGESTREL] | 3.44 |
| OC[C@@H](O)[C@@H](O)[C@H](O)[C@H](O)CO [MANNITOL] | > 30 |
| CN1CCCC(CN2c3ccccc3Sc3ccccc32)C1 (stereo not given) [MEPAZINE] | > 30 |
| CC(=O)Oc1c(C)cc(OCC(O)CNC(C)C)c(C)c1C (stereo not given) [METIPRANOLOL] | > 30 |
| O=C1CC[C@@]2(O)[C@H]3Cc4ccc(O)c5c4[C@@]2(CCN3CC2CC2)[C@H]1O5 [NALTREXONE] | > 30 |
| Cc1cc2c(cc1CC(=O)c1sccc1S(=O)(=O)Nc1onc(C)c1Cl)OCO2 [SITAXENTAN] | > 30 |
| CS(=O)(=O)c1ccc([C@@H](O)[C@@H](CO)NC(=O)C(Cl)Cl)cc1 [THIAMPHENICOL] | > 30 |
| Cc1ccc(O)c2ncccc12 [TILIQUINOL] | > 30 |
| CC(=O)OC[C@H]1O[C@@H](n2ccc(=O)[nH]c2=O)[C@H](OC(C)=O)[C@@H]1OC(C)=O [URIDINE TRIACETATE] | > 30 |
